In ChEMBL document CHEMBL3603818, “Hedgehog inhibitors from Withania somnifera” (Bioorg Med Chem Lett, 2015):
Activity calls are given as the source filed them. No cut-off for these calls is given here.

Key:
[1] = Inhibition of hedgehog/GLI1-mediated transcriptional activity in human HaCaT cells after 12 hrs by luciferase assay; format: cell-based
[2] = test system: MCF7; assay: Cytotoxicity against human MCF7 cells after 24 hrs by FMCA; format: functional, cell-based; settings: MCF7, 24 h
[3] = Cytotoxicity against mouse C3H10T1/2 cells after 24 hrs by FMCA; format: cell-based; settings: C3H 10T1/2, 24 h
[4] = Cytotoxicity against human PANC1 cells after 24 hrs by FMCA; format: functional, cell-based; settings: PANC-1, 24 h
[5] = test system: DU-145; assay: Cytotoxicity against human DU145 cells after 24 hrs by FMCA; format: functional, cell-based; settings: DU-145, 24 h
[6] = test system: PANC-1; assay: Inhibition of PTCH expression in human PANC1 cells at 5 uM after 12 hrs by Western blotting; format: functional, cell-based
[7] = test system: PANC-1; assay: Inhibition of BCL-2 expression in human PANC1 cells at 5 uM after 12 hrs by Western blotting; format: functional, cell-based
[8] = test system: HaCaT; assay: Inhibition of BCL-2 expression in human HaCaT cells expressing GLI1 at 1.5 uM after 12 hrs by Western blotting; format: functional, cell-based
[9] = test system: HaCaT; assay: Inhibition of PTCH expression in human HaCaT cells expressing GLI1 at 1.5 uM after 12 hrs by Western blotting; format: functional, cell-based
[10] = target: T1, Zinc finger protein GLI1 (Homo sapiens) (UniProt P08151); assay: Inhibition of GST-GLI1 (unknown origin) interaction with DNA assessed as reduction of protein-DNA complex level at 100 uM after 20 mins by electrophoretic mobility shift assay
T1 sequence (whole entry): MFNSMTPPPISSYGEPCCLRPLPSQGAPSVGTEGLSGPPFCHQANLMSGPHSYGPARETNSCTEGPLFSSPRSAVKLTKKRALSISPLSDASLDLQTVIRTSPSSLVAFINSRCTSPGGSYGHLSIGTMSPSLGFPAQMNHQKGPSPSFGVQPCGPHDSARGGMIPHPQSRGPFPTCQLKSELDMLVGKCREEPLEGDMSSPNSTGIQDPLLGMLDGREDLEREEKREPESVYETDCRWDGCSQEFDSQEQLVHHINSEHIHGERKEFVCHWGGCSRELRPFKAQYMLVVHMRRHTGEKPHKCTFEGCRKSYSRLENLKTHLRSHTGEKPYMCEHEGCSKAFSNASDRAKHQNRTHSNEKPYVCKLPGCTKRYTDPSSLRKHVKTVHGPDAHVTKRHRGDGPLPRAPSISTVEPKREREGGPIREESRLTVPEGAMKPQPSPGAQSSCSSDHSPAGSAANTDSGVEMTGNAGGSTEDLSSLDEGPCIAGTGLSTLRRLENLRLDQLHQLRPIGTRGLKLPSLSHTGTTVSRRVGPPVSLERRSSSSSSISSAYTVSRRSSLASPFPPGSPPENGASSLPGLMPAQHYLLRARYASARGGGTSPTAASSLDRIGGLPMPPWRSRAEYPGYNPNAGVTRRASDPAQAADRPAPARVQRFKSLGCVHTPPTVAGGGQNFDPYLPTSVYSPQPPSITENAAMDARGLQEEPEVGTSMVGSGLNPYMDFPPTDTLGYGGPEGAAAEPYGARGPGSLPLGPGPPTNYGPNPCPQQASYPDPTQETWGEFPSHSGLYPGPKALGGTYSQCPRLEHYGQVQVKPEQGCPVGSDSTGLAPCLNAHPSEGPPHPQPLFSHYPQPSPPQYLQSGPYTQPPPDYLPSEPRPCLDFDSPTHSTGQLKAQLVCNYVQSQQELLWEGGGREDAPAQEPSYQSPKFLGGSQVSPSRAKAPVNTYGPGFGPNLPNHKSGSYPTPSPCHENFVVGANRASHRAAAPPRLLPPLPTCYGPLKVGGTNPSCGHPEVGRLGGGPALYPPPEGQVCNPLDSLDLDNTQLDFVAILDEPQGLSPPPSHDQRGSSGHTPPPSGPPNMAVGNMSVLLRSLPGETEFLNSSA

[11] = test system: PANC-1; assay: Inhibition of BCL-2 expression in human PANC1 cells at 1 uM after 12 hrs by Western blotting; format: functional, cell-based
[12] = test system: PANC-1; assay: Inhibition of PTCH expression in human PANC1 cells at 1 uM after 12 hrs by Western blotting; format: functional, cell-based

Structure (SMILES) | IC50 [1] [µM] | IC50 [2] [µM] | IC50 [3] [µM] | IC50 [4] [µM] | IC50 [5] [µM] | inhibition [6] | inhibition [7] | inhibition [8] | inhibition [9] | inhibition [10] | inhibition [11] | inhibition [12]
CO[C@H]1CC(=O)[C@]2(C)[C@H]3CC[C@]4(C)[C@@H]([C@H](C)[C@H]5CC(C)=C(CO)C(=O)O5)CC[C@H]4[C@@H]3C[C@H]3O[C@]32[C@H]1O | > 25 | > 25 | > 25 | > 25 | > 25 | – | – | – | – | – | – | –
CC1=C(C)C(=O)O[C@@H]([C@@H](C)[C@H]2CC[C@H]3[C@@H]4C[C@H]5O[C@]56[C@@H](O)C=CC(=O)[C@]6(C)[C@H]4CC[C@]23C)C1 | 0.6 | 2.8 | 4.1 | 1.1 | 1.8 | Active | Active | Active | Active | – | – | –
CC1=C(CO)C(=O)O[C@@H]([C@@H](C)[C@H]2CC[C@H]3[C@@H]4CC=C5[C@@H](O)C=CC(=O)[C@]5(C)[C@H]4CC[C@]23C)C1 | 1.8 | 22.6 | > 25 | 11.9 | 10.6 | – | – | – | – | – | – | –
CC1=C(CO)C(=O)O[C@@H]([C@@H](C)[C@H]2CC[C@H]3[C@@H]4C[C@H]5O[C@]56[C@@H](O)[C@@H](OS(=O)(=O)O)CC(=O)[C@]6(C)[C@H]4CC[C@]23C)C1 | 2.2 | 17.9 | 21 | 14.8 | 21.7 | – | – | – | – | – | – | –
CC1=C(CO)C(=O)O[C@@H]([C@@H](C)[C@H]2CC[C@H]3[C@@H]4C[C@H]5O[C@]56[C@@H](O)CCC(=O)[C@]6(C)[C@H]4CC[C@]23C)C1 | 14.8 | > 25 | > 25 | > 25 | > 25 | – | – | – | – | Active | – | –
CC1=C(CO)C(=O)O[C@@H]([C@@H](C)[C@H]2CC[C@H]3[C@@H]4C[C@H]5O[C@]56[C@@H](O)C=CC(=O)[C@]6(C)[C@H]4CC[C@]23C)C1 [WITHAFERIN A] | 0.5 | 6.3 | 4.9 | 1.6 | 2.5 | – | – | Active | Active | Active | Active | Active
